Like-named read-outs stand apart in the source and are kept apart here.
Legend:
[1] = Example 11: hydroformylation of propylene; settings: 133 °C.
Experimental: Reaction Conditions: 1000 psig Total pressure, CO/H2 (50/50) mixture), 60 ml benzene as solvent, 0.30-0.45 moles propylene, 0.5 mmoles catalyst (based on Rh).

[2] = Example 7: effect of cocatalyst on production of methyl acetate from CH3 OH; settings: 175° C.
[3] = Table III: effect of cocatalyst on carbonylation of methanol to methyl acetate
[4] = Example 8 / Table II: effect of catalyst on carbonylation of methanol to methyl acetate; settings: CH3 I 8.0 mmole, 175° C., 1000 psi; for % Selectivity: additional product dimethyl ether
[5] = Experimental: This conversion is run at elevated pressures, preferably from 1,500 to 3,000 psi. Reaction temperatures will range from 50° C. to 200° C., with a range of 100° C. to 150° C. preferred. Ratio of H2 to CO used will vary with reaction conditions; preferably a 1 to 1 ratio is maintained. The catalyst concentration will range from 0.01 to 20% based on the weight feed, with 0.05 to 10 % preferred.
30 ml. of hexene-1, 20 ml. of benzene, and 0.3 gm. […] The bomb was heated to 140° C. and held until the reaction was complete.

[6] = cocatalyst 8.0 mmole, 1000 psi CO, CH3 I 18 hours, CH3 CH2 I 19 hours, C6 H5 I 90 hours
[7] = cocatalyst 8.0 mmole, 175° C., 1000 psi, CH3 I 18 hr, CH3 CH2 I 19 hr, C6 H5 I 90 hr
[8] = cocatalyst 8.0 mmole, 3.25 hr, 175° C., 4000 psi CO
[9] = cocatalyst 16.0 mmole, 4.25 hr, 175° C., 4000 psi CO
[10] = catalyst 1.0 mmole, 18-21 hours
[11] = catalyst 2.0 mmole, 16-19 hours (Co(C5 H7 O2)3: 67)
[12] = cocatalyst 4.0 mmole, 4000 psi CO, 4 hours

## O=[C]=[Rh]([Cl])([PH](c1ccccc1)(c1ccccc1)c1ccccc1)[PH](c1ccccc1)(c1ccccc1)c1ccccc1 [((C6 H5)3 P)2 Rh(CO)Cl]
[1]; 1000 psig CO/H2 50/50
  (%) n-C4 H8 O (percent straight chain isomer): 56%
  k (pseudo 1st order reaction rate constant): 0.0744 min⁻¹
[1]; t1/2 = ln 2/k
  t1/2: 9.32 min

## Ic1ccccc1 [C6 H5 I]
[2]; [6]
  methyl acetate produced (head is a drawing): 22.3 mL
[3]; [7]
  % Conversion to Methyl Acetate: 25%
  % Selectivity to Methyl Acetate: 52%

## CBr [CH3 Br]
[3]
  promotional effect as cocatalyst: inventive

## CCI [CH3 CH2 I]
[2]; [6]
  methyl acetate produced (head is a drawing): 17.5 mL
[3]; [7]
  % Conversion to Methyl Acetate: 20%
  % Selectivity to Methyl Acetate: 85%

## CI [CH3 I, methyl iodide]
[2]; [6]
  methyl acetate produced (head is a drawing): 21.4 mL
[2]; cocatalyst 8.0 mmole, 4000 psi CO, 4 hours
  methyl acetate produced (head is a drawing): 29.6 mL
[2]; cocatalyst 16.0 mmole, 4000 psi CO, 4 hours
  methyl acetate produced (head is a drawing): 19.8 mL
[3]; [7]
  % Conversion to Methyl Acetate: 24%
  % Selectivity to Methyl Acetate: 85%
[3]; [8]
  % Conversion to Methyl Acetate: 29%
  % Selectivity to Methyl Acetate: 97%
[3]; [9]
  % Conversion to Methyl Acetate: 25%
  % Selectivity to Methyl Acetate: 74%

## [C-]#[O+].[C-]#[O+].[C-]#[O+].[C-]#[O+].[C-]#[O+].[C-]#[O+].[C-]#[O+].[C-]#[O+].[Co].[Co] [Co2 (CO)8]
[4]; [10]
  % Conversion: 3.5%
  % Selectivity: 6.4%

## CC(=O)[CH-]C(C)=O.CC(=O)[CH-]C(C)=O.CC(=O)[CH-]C(C)=O.[Co+3] [Co(C5 H7 O2)3]
[4]; [11]
  % Conversion: 16%
  % Selectivity: 23%

## II [Example I2, iodine]
[2]; cocatalyst 2.0 mmole, 4000 psi CO, 4 hours
  methyl acetate produced (head is a drawing): 5.2 mL

## I [HI, hydrogen iodide]
[2]; [12]
  methyl acetate produced (head is a drawing): 6.6 mL
[3]
  % Conversion to Methyl Acetate: 8
  % Selectivity to Methyl Acetate: 47

## [I-].[Li+] [LiI]
[2]; [12]
  methyl acetate produced (head is a drawing): 1 mL
[3]
  % Conversion to Methyl Acetate: 0.6
  % Selectivity to Methyl Acetate: 100

## tetrakis tetrahydrofuran adduct of a magnesium-dicobalt hexacarbonyl bismethyldiphenylphosphine complex [[C4 H8 O]4 Mg[Co(CO)3 PCH3 (C6 H5)2]2]
[5]; 1500 psi, H2 :CO 1:1, 140° C.
  hexene-1 converted to C7 aldehydes and C7 alcohols: 99%
  reacted product that was an aldehyde: 87%
[5]; description
  conversion of 1-hexene to heptaldehydes: > 99%
  selectivity in conversion of 1-hexene to heptaldehydes: 87%
